Source: the NIST ThermoML archive (doi:10.1016/j.jct.2015.07.032)

Assays:
[1] = relative permittivity at various frequencies (dimensionless); conditions: 100 kPa, Liquid, Frequency=1 MHz, Parallel plate capacitor
[2] = relative permittivity at various frequencies (dimensionless); xn = mol fraction of the nth substance listed; conditions: 100 kPa, Liquid, Frequency=1 MHz, Parallel plate capacitor

CCCCO [butan-1-ol]
[1]
Conditions | relative permittivity
293.15 K | 18.21
298.15 K | 17.58
303.15 K | 16.95

CCCCO [butan-1-ol] + NC1CCCCC1
[2], x1 = 1
Conditions | relative permittivity
293.15 K | 18.21
298.15 K | 17.58
303.15 K | 16.95

NC1CCCCC1 [cyclohexylamine]
[1]
Conditions | relative permittivity
293.15 K | 4.62
298.15 K | 4.53
303.15 K | 4.45

NC1CCCCC1 [cyclohexylamine] + CCCCCCCCCCO
relative permittivity, [2]
Conditions | 293.15 K | 298.15 K | 303.15 K
x2 = 0 | 4.62 | 4.53 | 4.45
x2 = 0.0561 | 4.87 | 4.78 | 4.69
x2 = 0.1027 | 5.05 | 4.95 | 4.85
x2 = 0.2012 | 5.4 | 5.29 | 5.19
x2 = 0.2947 | 5.73 | 5.6 | 5.49
x2 = 0.4077 | 6.09 | 5.95 | 5.82
x2 = 0.5107 | 6.42 | 6.26 | 6.11
x2 = 0.5522 | 6.56 | 6.38 | 6.22
x2 = 0.604 | 6.72 | 6.53 | 6.36
x2 = 0.6528 | 6.88 | 6.68 | 6.5
x2 = 0.697 | 7.02 | 6.81 | 6.61
x2 = 0.7474 | 7.2 | 6.97 | 6.76
x2 = 0.7859 | 7.34 | 7.09 | 6.87
x2 = 0.8348 | 7.54 | 7.27 | 7.02
x2 = 0.8915 | 7.81 | 7.51 | 7.22
x2 = 0.942 | 8.08 | 7.73 | 7.41

NC1CCCCC1 [cyclohexylamine] + CCCCCCCO
relative permittivity, [2]
Conditions | 293.15 K | 298.15 K | 303.15 K
x2 = 0 | 4.62 | 4.53 | 4.45
x2 = 0.0522 | 4.93 | 4.83 | 4.74
x2 = 0.1037 | 5.22 | 5.11 | 5.01
x2 = 0.2039 | 5.8 | 5.7 | 5.61
x2 = 0.2903 | 6.29 | 6.15 | 6.01
x2 = 0.3955 | 6.93 | 6.76 | 6.6
x2 = 0.4467 | 7.27 | 7.08 | 6.91
x2 = 0.5072 | 7.67 | 7.45 | 7.26
x2 = 0.5554 | 8.01 | 7.78 | 7.56
x2 = 0.5918 | 8.26 | 8.01 | 7.78
x2 = 0.6575 | 8.72 | 8.45 | 8.19
x2 = 0.6959 | 9.01 | 8.71 | 8.44
x2 = 0.7433 | 9.39 | 9.07 | 8.77
x2 = 0.7933 | 9.81 | 9.46 | 9.13
x2 = 0.8177 | 10.03 | 9.67 | 9.34
x2 = 0.8881 | 10.7 | 10.29 | 9.9
x2 = 0.9463 | 11.35 | 10.89 | 10.45

NC1CCCCC1 [cyclohexylamine] + CCCCO
relative permittivity, [2]
Conditions | 293.15 K | 298.15 K | 303.15 K
x2 = 0 | 4.62 | 4.53 | 4.45
x2 = 0.0493 | 4.99 | 4.9 | 4.8
x2 = 0.1081 | 5.46 | 5.35 | 5.23
x2 = 0.2107 | 6.37 | 6.22 | 6.07
x2 = 0.3104 | 7.39 | 7.2 | 7.01
x2 = 0.403 | 8.47 | 8.22 | 7.99
x2 = 0.4521 | 9.08 | 8.82 | 8.56
x2 = 0.4995 | 9.73 | 9.44 | 9.15
x2 = 0.5556 | 10.55 | 10.21 | 9.9
x2 = 0.5974 | 11.18 | 10.82 | 10.49
x2 = 0.6987 | 12.81 | 12.4 | 11.98
x2 = 0.7968 | 14.53 | 14.04 | 13.57
x2 = 0.8955 | 16.31 | 15.76 | 15.24
x2 = 0.9472 | 17.26 | 16.67 | 16.11
x2 = 0.9773 | 17.82 | 17.2 | 16.63

NC1CCCCC1 [cyclohexylamine] + CCCO
relative permittivity, [2]
Conditions | 293.15 K | 298.15 K | 303.15 K
x2 = 0 | 4.62 | 4.53 | 4.45
x2 = 0.034 | 4.88 | 4.78 | 4.68
x2 = 0.1154 | 5.64 | 5.08 | 5.37
x2 = 0.213 | 6.58 | 6.42 | 6.26
x2 = 0.3031 | 7.66 | 7.46 | 7.26
x2 = 0.3996 | 9.02 | 8.76 | 8.5
x2 = 0.4469 | 9.77 | 9.48 | 9.19
x2 = 0.4962 | 10.61 | 10.29 | 9.97
x2 = 0.5499 | 11.61 | 11.25 | 10.89
x2 = 0.6056 | 12.69 | 12.29 | 11.9
x2 = 0.6998 | 14.69 | 14.24 | 13.79
x2 = 0.7953 | 16.94 | 16.43 | 15.92
x2 = 0.8464 | 18.08 | 17.54 | 17.01
x2 = 0.8913 | 19.21 | 18.71 | 18.14
x2 = 0.9509 | 20.44 | 19.85 | 19.21
x2 = 0.9798 | 21.09 | 20.41 | 19.77

CCCCCCCCCCO [decan-1-ol]
[1]
Conditions | relative permittivity
293.15 K | 8.41
298.15 K | 8.01
303.15 K | 7.64

CCCCCCCCCCO [decan-1-ol] + NC1CCCCC1
[2], x1 = 1
Conditions | relative permittivity
293.15 K | 8.41
298.15 K | 8.01
303.15 K | 7.64

CCCCCCCO [heptan-1-ol]
[1]
Conditions | relative permittivity
293.15 K | 11.97
298.15 K | 11.47
303.15 K | 10.98

CCCCCCCO [heptan-1-ol] + NC1CCCCC1
[2], x1 = 1
Conditions | relative permittivity
293.15 K | 11.97
298.15 K | 11.47
303.15 K | 10.98

CCCO [propan-1-ol]
[1]
Conditions | relative permittivity
293.15 K | 21.23
298.15 K | 20.54
303.15 K | 19.84

CCCO [propan-1-ol] + NC1CCCCC1
[2], x1 = 1
Conditions | relative permittivity
293.15 K | 21.23
298.15 K | 20.54
303.15 K | 19.84
